Results published in US9624215B2, “Amine derivative or salt thereof” (TOYAMA CHEMICAL CO., LTD., priority 2012, dated 2017).

What was measured:
[1] = tested on: normal human neonatal foreskin epidermal keratinocytes (NHEK-F); experiment: Cell proliferation inhibition test; assay type: cell-based; settings: Keratinocyte, 72 h, NHEK-F cells, three days incubation, ATPlite or CellTiterGlo, read-out: IC50 (concentration of the compound at which the cell count is reduced by 50%)
Summary of the method: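 NHEK-F keratinocytes, 2×10^3 per well in Humedia-EG2, plated overnight, then exposed to compound for three days. Cell count by ATPlite or CellTiterGlo luminescence; inhibition = 100 − (treated/untreated count)×100, IC50 as 50% reduction concentration.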

[2] = tested on: TNFα production in LPS-stimulated Raw264.7 cells; experiment: TNFα production inhibition test; assay type: cell-based; settings: Mus musculus, test compound 1 μmol/L, LPS 1 μg/mL, 16 hours, ELISA, read-out: Inhibition rate of TNFα production
Protocol: 7×10^4 mouse macrophage-derived cell line Raw264.7 cells were suspended in 100 μL of RPMI1640 medium containing 10% fetal bovine serum, plated in a 96-well plate and incubated overnight. The culture supernatant was removed and the test compound diluted in RPMI1640 medium containing 1% fetal bovine serum (final concentration: 1 μmol/L) was added. One hour after the addition, LPS (B4:0111) (Sigma-Aldrich, L2630) was added to a final concentration of 1 μg/mL. 16 hours after the stimulation, the culture supernatant was collected and the amount of TNFα produced in the culture supernatant was determined using ELISA kit (R&D Systems, MTA00B).
The inhibition rate was calculated from the following formula. Inhibition rate (%)=100−(amount of TNFα produced in the presence of test compound/amount of TNFα produced in the absence of test compound)×100

[3] = tested on: TPA-induced ear edema and acanthosis in Balb/c mice; experiment: Mouse TPA-induced ear-swelling model; assay type: in vivo; settings: topical, 240 h, 1% w/v solution, 20 μL applied to ear once a day from day 0 to day 9, female Balb/c mice, read-out: Inhibition rate of change in ear thickness on day 10
Summary of the method: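 Female Balb/c mice, 7 weeks old; 20 ng/mL TPA in 5% DMSO/acetone applied to outer ear on days 0, 2, 4, 7, 9. Test compound at 1% w/v topically once daily days 0-9, vehicle control. Inhibition rate from day 10 minus day 0 ear-thickness change versus control.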

| Structure (SMILES) | IC50 [1] | inhibition at 1 µM [2] | inhibition in vivo at 1 % strength [3] |
| --- | --- | --- | --- |
| O=C(O)c1cc(Cl)ccc1Nc1cccc2c1ccn2-c1ccccc1 [Example 275, 5-chloro-2-((1-phenyl-1H-indol-4-yl)amino)benzoic acid] | ≤ 10 nM | ≥ 50% | ≥ 20% |
| O=C(O)c1cc(C2CC2)ccc1Nc1ccc2c(cnn2Cc2ccccc2)c1 [Example 29, 2-((1-benzyl-1H-indazol-5-yl)amino)-5-cyclopropylbenzoic acid] | ≤ 10 nM | ≥ 50% | ≥ 20% |
| O=C(O)c1nc(C2CC2)cnc1Nc1ccc2c(ccn2Cc2ccccc2)c1 [Example 71, 3-((1-benzyl-1H-indol-5-yl)amino)-6-cyclopropylpyrazine-2-carboxylic acid] | ≤ 10 nM | ≥ 50% | ≥ 20% |
| O=C(O)c1cc(C2CC2)cnc1Nc1ccc2c(ccn2-c2ccccc2)c1 [Example 39, 5-cyclopropyl-2-((1-phenyl-1H-indol-5-yl)amino)nicotinic acid] | ≤ 10 nM | ≥ 50% | ≥ 20% |
| O=C(O)c1cc(C(F)(F)F)ccc1Nc1ccc2c(ccn2Cc2ccccc2)c1 [Example 32, 2-((1-benzyl-1H-indol-5-yl)amino)-5-(trifluoromethyl)benzoic acid] | ≤ 10 nM | ≥ 50% | ≥ 20% |
| O=C(O)c1cc(C2CC2)cnc1Nc1ccc2c(ccn2Cc2ccccc2)c1 [Example 37, 2-((1-benzyl-1H-indol-5-yl)amino)-5-cyclopropylnicotinic acid] | ≤ 10 nM | ≥ 50% | ≥ 20% |
